Assay [1] has as its system GIME cells. Briefly: Polyploidization of GIME cells (DNA content by flow cytometry). The assay is classed as cell-based. Particulars: GATA1-null (GIME) cells, 72 hours. How it is done: (§1) (A) Y10, (B) GIME, and (C) CMK cells were grown in the presence of TPO, SU6656, or vehicle (DMSO) for 72 hours. DNA content was measured by flow cytometry. The percentages of cells that reach a DNA content of ≧8N are boxed in A and C, those equal to 8N are boxed in B. D) CMK cells were grown as in (C), and cell numbers were enumerated at 0, 24, 48 and 72 h.
DNA content was then assessed by flow cytometry. Numbers above the bar indicate % of cells ≧8N. b) After 48 hours, GIME cells from a) were stained with anti-CD42 antibodies and the cell surface expression of CD42 was evaluated by flow cytometry.
(§2) To study how megakaryocytes switch from a proliferative to endomitotic cell cycle, the Src kinase inhibitor SU6656 is being utilized.

Assay [2] deals with CMK cells. The experiment in a line: Polyploidization of CMK cells (DNA content). The assay is classed as cell-based, human. Particulars: GATA1/JAK3 double mutant CMK cell line, 72 hours. How it is done: as §1, §2
In collaboration with the Broad Institute, a high throughput screen for small molecules was conducted to identify small molecules that preferentially induce polyploidization or differentiation of megakaryocytes. We screened 10,000 compounds from the Broad's extensive collection of small molecules (including known bioactives, kinase and HDAC inhibitors, and natural products) to identify inducers of megakaryocyte polyploidization. […] 6) Data were analyzed using both MetaXpress software and “Cell Profiler,” software designed at MIT and the Broad Institute. […]

Assay [3] concerns CMK (human megakaryocytic leukemia) cells. Briefly: High throughput screen for inducers of megakaryocyte polyploidization. The assay is classed as cell-based. The note with it: 10 μM, 72 hours, Hoescht stain, high content imaging. As to the method:
In collaboration with the Broad Institute, a high throughput screen for small molecules was conducted to identify small molecules that preferentially induce polyploidization or differentiation of megakaryocytes. We screened 10,000 compounds from the Broad's extensive collection of small molecules (including known bioactives, kinase and HDAC inhibitors, and natural products) to identify inducers of megakaryocyte polyploidization. The screen was performed in the following manner: 1) 4,000 CMK (human megakaryocytic leukemia) cells were plated into each well of a 384-well plate, 2) 100 n1 of compounds (yielding a final concentration of 10 μM) were pinned into the wells, 3) plates were incubated at 37° C. for 72 hours, 4) cells were fixed and stained with Hoescht, and 5) plates were imaged using an ImageXpressMICRO high content imager with 20× objective. Nine images per well were collected. 6) Data were analyzed using both MetaXpress software and “Cell Profiler,” software designed at MIT and the Broad Institute. Seventy-two plates containing duplicates of nearly 10,000 small molecules were screened.

The test system of assay [4] is CMK cells. The experiment in a line: CMK cell proliferation (cell numbers enumerated). The assay is classed as cell-based, human. The note with it: CMK cells, 0, 24, 48 and 72 h. As to the method:
(§3) FIG. 2 illustrates that SU6656 induces polyploidization and proliferative arrest of megakaryocytic leukemia cells. (A) Y10, (B) GIME, and (C) CMK cells were grown in the presence of TPO, SU6656, or vehicle (DMSO) for 72 hours. DNA content was measured by flow cytometry. The percentages of cells that reach a DNA content of ≧8N are boxed in A and C, those equal to 8N are boxed in B. D) CMK cells were grown as in (C), and cell numbers were enumerated at 0, 24, 48 and 72 h.
as §2

Assay [5] has as its system Y10 cells. Briefly: Polyploidization of Y10 cells (DNA content by flow cytometry). The assay is classed as cell-based. Particulars: wild-type (Y10) cells, 72 hours. As to the method: as §3, §2
In assay [6] the test system is primary murine megakaryocytes. The experiment in a line: Polyploidization of primary murine megakaryocytes. The assay is classed as cell-based. Particulars: data not shown.
Description: as §2

The subject of assay [7] is wild-type and GATA-1 mutant megakaryocyte progenitors. The experiment in a line: Proliferation of megakaryocyte progenitors. The assay is classed as cell-based. Particulars: preliminary data. From the text:
The paradigm for successful, targeted differentiation therapy is the use of all trans retinoic acid (ATRA) for treatment of Acute Promyelocytic Leukemia (APL) (for a review, see (20). Prior to the development of ATRA therapy, the prognosis for patients with APL, which represents 5-10% of adult AML, was very poor. In contrast, the vast majority of APL patients treated with ATRA achieve hematologic remission (21-23). One aim of the current study is to test novel therapeutic strategies for AMKL, in particular, whether the forced induction of MK polyploidization can serve as a “differentiation therapy” for AMKL. […] Furthermore, megakaryocytes are one of the few cell types that are poised to undergo polyploidization during normal maturation.

In the case of `CN(C)S(=O)(=O)c1ccc2c(c1)/C(=C/c1cc3c([nH]1)CCCC3)C(=O)N2` [SU6656], the polyploidization entry was “efficiently promoted polyploidization” in assay [1], “efficiently promoted polyploidization” in assay [2], “efficiently promoted polyploidization” in assay [5] and “promote polyploidization” in assay [6]. In addition, in assay [3], the “positive in polyploidization screen” value is recorded as “positives”. The “proliferation (cell numbers)” value in assay [4] is given as “cessation of proliferation”. The “proliferation of megakaryocyte progenitors” value in assay [7] is “effectively reduces proliferation”.

These data come from patent US8933071B2, “Dimethyl fasudil for inducing polyploidization of megakaryocytes and for treating blood and bone marrow diseases and disorders” (Northwestern University, priority 2008, dated 2015).
